According to US11596692B1 (Incyte Corporation, priority 2018, dated 2023):
Like-named read-outs stand apart in the source and are kept apart here.

Tested on: IRF3
Assay: IRF3 activation assay in THP-1 Dual cells
Type: cell-based
Conditions: Homo sapiens, read-out: THP1 IRF3 EC50
How it was run: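 THP-1 Dual cells (100,000/well) were treated with serially diluted compound for 24 h at 37° C, 5% CO2. IRF3 reporter activity in supernatant was read with QUANTI-Blue as absorbance at 620-655 nm after 2 h, with untreated cells as negative control. EC50 came from fitting percent control activity against log concentration.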

CCn1nc(C)cc1C(=O)Nc1nc2cc(C(N)=O)cc(OCCCO)c2n1C/C=C/Cn1c2nc(-c3cc(C)nn3CC)ncc2c2cc(C(N)=O)cc(OCCCNC(=O)OCCC(=O)O)c21 [Example S54, (E)-3-(3-(6-carbamoyl-9-(4-(5-carbamoyl-2-(1-ethyl-3-methyl-1H-pyrazole-5-carboxamido)-7-(3-hydroxypropoxy)-1H-benzo[d]imidazol-1-yl)but-2-enyl)-2-(1-ethyl-3-methyl-1H-pyrazol-5-yl)-9H-pyrimido[4,5-b]indol-8-yloxy)propylcarbamoyloxy)propanoic acid]
EC50 (THP-1, Table 4C): ≤ 50 nM

CCn1nc(C)cc1C(=O)Nc1nc2cc(C(N)=O)cc(OCCCOC)c2n1C/C=C/Cn1c2nc(-c3cc(C)nn3CC)ncc2c2cc(C(N)=O)cc(OCCCNC(=O)CCCC(=O)O)c21 [Example S55, (E)-5-(3-(6-carbamoyl-9-(4-(5-carbamoyl-2-(1-ethyl-3-methyl-1H-pyrazole-5-carboxamido)-7-(3-methoxypropoxy)-1H-benzo[d]imidazol-1-yl)but-2-enyl)-2-(1-ethyl-3-methyl-1H-pyrazol-5-yl)-9H-pyrimido[4,5-b]indol-8-yloxy)propylamino)-5-oxopentanoic acid]
EC50 (THP-1, Table 4C): ≤ 50 nM

CCn1nc(C)cc1C(=O)Nc1nc2cc(C(N)=O)cc(OCCCOC)c2n1C/C=C/Cn1c2nc(-c3cc(C)nn3CC)ncc2c2cc(C(N)=O)cc(OCCCNC(=O)OCCC(=O)O)c21 [Example S56, (E)-3-(3-(6-carbamoyl-9-(4-(5-carbamoyl-2-(1-ethyl-3-methyl-1H-pyrazole-5-carboxamido)-7-(3-methoxypropoxy)-1H-benzo[d]imidazol-1-yl)but-2-enyl)-2-(1-ethyl-3-methyl-1H-pyrazol-5-yl)-9H-pyrimido[4,5-b]indol-8-yloxy)propylcarbamoyloxy)propanoic acid]
EC50 (THP-1, Table 4C): ≤ 50 nM

CCn1nc(C)cc1C(=O)Nc1nc2cc(C(N)=O)cc(OCCCOC)c2n1C/C=C/Cn1c2nc(-c3cc(C)nn3CC)ncc2c2cc(C(N)=O)cc(OCCCOC(=O)NCCC(=O)O)c21 [Example S57, (E)-3-((3-(6-carbamoyl-9-(4-(5-carbamoyl-2-(1-ethyl-3-methyl-1H-pyrazole-5-carboxamido)-7-(3-methoxypropoxy)-1H-benzo[d]imidazol-1-yl)but-2-enyl)-2-(1-ethyl-3-methyl-1H-pyrazol-5-yl)-9H-pyrimido[4,5-b]indol-8-yloxy)propoxy)carbonylamino)propanoic acid]
EC50 (THP-1, Table 4C): 50 to 200 nM

CCn1nc(C)cc1C(=O)Nc1nc2cc(C(N)=O)cc(OCCCOC)c2n1C/C=C/Cn1c2nc(-c3cc(C)nn3CC)ncc2c2cc(C(N)=O)cc(OCCOCCOCCC(=O)O)c21 [Example S58, (E)-3-(2-(2-(6-carbamoyl-9-(4-(5-carbamoyl-2-(1-ethyl-3-methyl-1H-pyrazole-5-carboxamido)-7-(3-methoxypropoxy)-1H-benzo[d]imidazol-1-yl)but-2-enyl)-2-(1-ethyl-3-methyl-1H-pyrazol-5-yl)-9H-pyrimido[4,5-b]indol-8-yloxy)ethoxy)ethoxy)propanoic acid]
EC50 (THP-1, Table 4C): 50 to 200 nM

CCn1nc(C)cc1C(=O)Nc1nc2cc(C(N)=O)cc(OCCCOC)c2n1C/C=C/Cn1c2nc(-c3cc(C)nn3CC)ncc2c2cc(C(N)=O)cc(OCCOCCOCCOCCC(=O)O)c21 [Example S59, (E)-3-(2-(2-(2-(6-carbamoyl-9-(4-(5-carbamoyl-2-(1-ethyl-3-methyl-1H-pyrazole-5-carboxamido)-7-(3-methoxypropoxy)-1H-benzo[d]imidazol-1-yl)but-2-enyl)-2-(1-ethyl-3-methyl-1H-pyrazol-5-yl)-9H-pyrimido[4,5-b]indol-8-yloxy)ethoxy)ethoxy)ethoxy)propanoic acid]
EC50 (THP-1, Table 4C): 50 to 200 nM

CCn1nc(C)cc1C(=O)Nc1nc2cc(C(N)=O)cc(OC)c2n1C/C=C/Cn1c2nc(-c3cc(C)nn3CC)ncc2c2cc(C(N)=O)cc(OCCC3CCN(CCCC(=O)O)CC3)c21 [Example S60, (E)-4-(4-(2-(6-carbamoyl-9-(4-(5-carbamoyl-2-(1-ethyl-3-methyl-1H-pyrazole-5-carboxamido)-7-methoxy-1H-benzo[d]imidazol-1-yl)but-2-enyl)-2-(1-ethyl-3-methyl-1H-pyrazol-5-yl)-9H-pyrimido[4,5-b]indol-8-yloxy)ethyl)piperidin-1-yl)butanoic acid]
EC50 (THP-1, Table 4C): 50 to 200 nM

CCn1nc(C)cc1C(=O)Nc1nc2cc(C(N)=O)cc(OC)c2n1C/C=C/Cn1c2nc(-c3cc(C)nn3CC)ncc2c2cc(C(N)=O)cc(OCCC3CCN(C(=O)OCC(=O)O)CC3)c21 [Example S61]
EC50 (THP-1, Table 4C): 50 to 200 nM

CCn1nc(C)cc1C(=O)Nc1nc2cc(C(N)=O)cc(OCCCO)c2n1C/C=C/Cn1c2nc(-c3cc(C)nn3CC)ncc2c2cc(C(N)=O)cc(OCCCOC(=O)NCCC(=O)O)c21 [Example S62, (E)-3-((3-(6-carbamoyl-9-(4-(5-carbamoyl-2-(1-ethyl-3-methyl-1H-pyrazole-5-carboxamido)-7-(3-hydroxypropoxy)-1H-benzo[d]imidazol-1-yl)but-2-enyl)-2-(1-ethyl-3-methyl-1H-pyrazol-5-yl)-9H-pyrimido[4,5-b]indol-8-yloxy)propoxy)carbonylamino)propanoic acid]
EC50 (THP-1, Table 4C): 50 to 200 nM

CCn1nc(C)cc1C(=O)Nc1nc2cc(C(N)=O)cc(OCCCOC(=O)NCCC(=O)O)c2n1C/C=C/Cn1c2nc(-c3cc(C)nn3CC)ncc2c2cc(C(N)=O)cc(OCCOCCOCCC(=O)O)c21 [Example S63, (E)-3-(((3-((5-carbamoyl-1-(4-(6-carbamoyl-8-(2-(2-(2-carboxyethoxy)ethoxy)ethoxy)-2-(1-ethyl-3-methyl-1H-pyrazol-5-yl)-9H-pyrimido[4,5-b]indol-9-yl)but-2-en-1-yl)-2-(1-ethyl-3-methyl-1H-pyrazole-5-carboxamido)-1H-benzo[d]imidazol-7-yl)oxy)propoxy)carbonyl)amino)propanoic acid]
EC50 (THP-1, Table 4C): 200 to 500 nM

CCn1nc(C)cc1C(=O)Nc1nc2cc(C(N)=O)cc(OCCCNC(=O)CCC(=O)O)c2n1C/C=C/Cn1c2nc(-c3cc(C)nn3CC)ncc2c2cc(C(N)=O)cc(OCCCOC)c21 [Example S64, (E)-4-((3-((5-carbamoyl-1-(4-(6-carbamoyl-2-(1-ethyl-3-methyl-1H-pyrazol-5-yl)-8-(3-methoxypropoxy)-9H-pyrimido[4,5-b]indol-9-yl)but-2-en-1-yl)-2-(1-ethyl-3-methyl-1H-pyrazole-5-carboxamido)-1H-benzo[d]imidazol-7-yl)oxy)propyl)amino)-4-oxobutanoic acid]
EC50 (THP-1, Table 4C): 50 to 200 nM

CCn1nc(C)cc1-c1ncc2c3cc(C(N)=O)cc(OCCCO)c3n(C/C=C/Cn3c4nc(-c5cc(C)nn5CC)ncc4c4cc(C(N)=O)cc(OCCCO)c43)c2n1 [Example S65, (E)-9,9′-(but-2-ene-1,4-diyl)bis(2-(1-ethyl-3-methyl-1H-pyrazol-5-yl)-8-(3-hydroxypropoxy)-9H-pyrimido[4,5-b]indole-6-carboxamide)]
EC50 (THP-1, Table 4A): ≤ 100 nM

CCn1nc(C)cc1C(=O)Nc1nc2cc(C(N)=O)cc(OCCCOC(=O)NCCC(=O)O)c2n1C/C=C/Cn1c(NC(=O)c2cc(C)nn2CC)nc2cc(C(N)=O)c3ccoc3c21 [Example S66, (E)-3-(((3-((5-carbamoyl-1-(4-(5-carbamoyl-2-(1-ethyl-3-methyl-1H-pyrazole-5-carboxamido)-1H-benzofuro[6,7-d]imidazol-1-yl)but-2-en-1-yl)-2-(1-ethyl-3-methyl-1H-pyrazole-5-carboxamido)-1H-benzo[d]imidazol-7-yl)oxy)propoxy)carbonyl)amino)propanoic acid]
EC50 (THP-1, Table 4A): ≤ 100 nM
